According to ChEMBL document CHEMBL1201862, “PubChem BioAssay data set” (2004):
Active and inactive are the calls of the source.

Key:
[1] = THP-1 cell cytotoxicity, dose response, cytotoxicity control for Vif-APOBEC3G degradation inhibitor project, THP-1 cells (AID 1117359); type: functional; conditions: Human immunodeficiency virus 1, THP-1
[2] = target: Envelope glycoprotein gp160 (Human immunodeficiency virus 1, UniProt Q6QLK5); test: inhibitors of HIV fusion peptide binding, primary screen, biochemical, uHTS, fluorescence dequenching (AID 1986)
[3] = target: Induced myeloid leukemia cell differentiation protein Mcl-1 (Homo sapiens, UniProt Q07820); type: functional
[4] = ADAM10 protease inhibitors, dose response, selectivity assay for ADAM17 exosite inhibitor project, biochemical, FRET peptide substrate, recombinant human ADAM10 (AID 743259);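 note: ADAM10 enzyme cleaving a FRET peptide substrate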
[5] = control 3'UTR Renilla luciferase suppression, dose response, counter-screen for Shn3 inhibitor project, cell-based, Clone20-Shn3RL, cherry-picked (AID 624133); type: functional
[6] = HepG2 cell cytotoxicity, dose response, cytotoxicity control for Shn3 inhibitor project, CellTiter-Glo, cherry-picked (AID 624134); type: functional, cell-based
[7] = target: Disintegrin and metalloproteinase domain-containing protein 17 (Homo sapiens, UniProt P78536); test: exosite inhibitors of ADAM17, dose response, biochemical (AID 743260)
[8] = Shn3 3'UTR reporter inhibitors, dose response, cell-based, Clone20 osteoblasts, firefly luciferase, cherry-picked (AID 624132); type: functional;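 note: firefly luciferase luminescence from reporter carrying the Shn3 3'UTR in osteoblasts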
[9] = nmpC-GFP reporter inhibition in S. Typhimurium, dose response, counter-screen for PhoP regulon inhibitor project, purified and synthesized compounds, set 2 (AID 2834); type: functional
[10] = target: G-protein coupled receptor 55 (Homo sapiens, UniProt Q9Y2T6); test: GPR55 agonists via beta-arrestin recruitment, primary screen, imaging, U2OS cells, beta-arrestin-GFP redistribution (AID 1961); type: functional
[11] = target: T1, Mu-type opioid receptor (Homo sapiens, UniProt P35372); test: HTS Image-Based Screen for Agonists of the MOR Receptor. [Related pubchem assays (depositor defined):AID1777, AID1785, AID1786, AID2133]; type: functional
[12] = target: Eukaryotic translation initiation factor 4E (Mus musculus, UniProt P63073); test: eIF4E–eIF4G protein interaction inhibitors, dose response, biochemical, TR-FRET (AID 855); type: functional;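 note: potency for disrupting eIF4E binding to eIF4GI seen as loss of FRET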
[13] = target: T2, Kappa-type opioid receptor (Homo sapiens, UniProt P41145); type: functional
[14] = target: T3, Delta-type opioid receptor (Homo sapiens, UniProt P41143); test: HTS Image-Based Screen for Antagonists of the DOR Receptor. [Related pubchem assays (depositor defined):AID1777, AID1785, AID1786, AID2133]; type: functional
[15] = target: T2, Kappa-type opioid receptor; type: functional; remark: listed apart in the source
[16] = target: T3, Delta-type opioid receptor; test: HTS Image-Based Screen for Agonists of the DOR Receptor. [Related pubchem assays (depositor defined):AID1777, AID1786, AID2133]; type: functional
[17] = target: T3, Delta-type opioid receptor; test: SAR Analysis of Antagonists of the DOR Receptor using an Image-Based Assay - Set 3. [Related pubchem assays (depositor defined):AID1777, AID1785]; type: functional
[18] = target: T2, Kappa-type opioid receptor; test: SAR analysis of small molecule antagonists of the kappa opioid receptor via a luminescent beta-arrestin assay - Set 3. [Related pubchem assays (depositor defined):AID1777, AID1778, AID1785, AID1786, AID1966, AID2133, AID2136, AID2285, AID2495]; type: functional
[19] = target: T1, Mu-type opioid receptor; test: SAR Analysis of Antagonists of the MOR Receptor using an Image-Based Assay - Set 3. [Related pubchem assays (depositor defined):AID1777, AID1785, AID1786, AID1966, AID2133, AID2136, AID2284, AID2285, AID2420]; type: functional
[20] = target: T2, Kappa-type opioid receptor; test: SAR analysis of Antagonists of the Kappa Opioid Receptor (KOR) using an Image-Based Assay - Set 4. [Related pubchem assays (depositor defined):AID1777, AID1785]; type: functional

T2 sequence (P41145 whole entry): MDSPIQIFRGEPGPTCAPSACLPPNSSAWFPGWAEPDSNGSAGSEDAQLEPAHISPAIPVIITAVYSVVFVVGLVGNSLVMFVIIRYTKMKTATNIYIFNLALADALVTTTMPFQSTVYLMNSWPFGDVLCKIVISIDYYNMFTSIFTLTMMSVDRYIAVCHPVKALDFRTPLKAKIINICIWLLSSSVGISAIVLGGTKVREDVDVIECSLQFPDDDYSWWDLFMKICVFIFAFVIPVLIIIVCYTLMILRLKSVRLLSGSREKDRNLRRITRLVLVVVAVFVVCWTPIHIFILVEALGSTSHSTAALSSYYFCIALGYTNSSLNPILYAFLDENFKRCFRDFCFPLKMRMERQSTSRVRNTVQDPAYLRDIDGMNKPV
T3 sequence (P41143 whole entry): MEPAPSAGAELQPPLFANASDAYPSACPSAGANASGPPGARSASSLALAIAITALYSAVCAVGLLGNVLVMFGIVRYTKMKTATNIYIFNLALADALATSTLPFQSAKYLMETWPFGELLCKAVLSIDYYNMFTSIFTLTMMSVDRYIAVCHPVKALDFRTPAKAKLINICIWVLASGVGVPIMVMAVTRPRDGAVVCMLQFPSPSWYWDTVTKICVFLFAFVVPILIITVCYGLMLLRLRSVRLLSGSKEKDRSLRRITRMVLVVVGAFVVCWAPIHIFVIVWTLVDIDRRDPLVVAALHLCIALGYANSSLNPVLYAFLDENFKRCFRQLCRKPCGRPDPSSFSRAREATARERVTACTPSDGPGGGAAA
T1 sequence (P35372 whole entry): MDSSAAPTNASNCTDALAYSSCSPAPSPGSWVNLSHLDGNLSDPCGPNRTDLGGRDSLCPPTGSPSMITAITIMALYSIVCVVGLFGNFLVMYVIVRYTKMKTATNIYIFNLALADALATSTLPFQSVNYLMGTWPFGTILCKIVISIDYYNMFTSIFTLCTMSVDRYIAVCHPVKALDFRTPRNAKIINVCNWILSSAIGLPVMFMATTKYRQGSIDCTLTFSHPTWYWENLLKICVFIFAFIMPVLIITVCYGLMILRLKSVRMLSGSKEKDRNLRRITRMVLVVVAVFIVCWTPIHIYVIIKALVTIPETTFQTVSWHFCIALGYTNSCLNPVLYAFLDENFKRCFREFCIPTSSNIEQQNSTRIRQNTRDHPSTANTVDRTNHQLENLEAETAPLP
Sequence of Induced myeloid leukemia cell differentiation protein Mcl-1 (Q07820 whole entry): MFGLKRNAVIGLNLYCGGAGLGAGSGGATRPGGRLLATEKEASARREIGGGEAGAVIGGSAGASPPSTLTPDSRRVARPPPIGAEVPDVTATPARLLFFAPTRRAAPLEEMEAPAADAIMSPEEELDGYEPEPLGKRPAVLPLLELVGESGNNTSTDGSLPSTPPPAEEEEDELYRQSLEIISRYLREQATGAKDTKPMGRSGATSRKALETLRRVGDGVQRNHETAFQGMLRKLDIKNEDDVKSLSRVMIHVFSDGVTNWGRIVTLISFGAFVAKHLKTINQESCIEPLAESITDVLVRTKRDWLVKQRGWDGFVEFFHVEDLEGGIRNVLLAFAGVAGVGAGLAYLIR
Sequence of Disintegrin and metalloproteinase domain-containing protein 17 (P78536 whole entry, the tested form may be a part): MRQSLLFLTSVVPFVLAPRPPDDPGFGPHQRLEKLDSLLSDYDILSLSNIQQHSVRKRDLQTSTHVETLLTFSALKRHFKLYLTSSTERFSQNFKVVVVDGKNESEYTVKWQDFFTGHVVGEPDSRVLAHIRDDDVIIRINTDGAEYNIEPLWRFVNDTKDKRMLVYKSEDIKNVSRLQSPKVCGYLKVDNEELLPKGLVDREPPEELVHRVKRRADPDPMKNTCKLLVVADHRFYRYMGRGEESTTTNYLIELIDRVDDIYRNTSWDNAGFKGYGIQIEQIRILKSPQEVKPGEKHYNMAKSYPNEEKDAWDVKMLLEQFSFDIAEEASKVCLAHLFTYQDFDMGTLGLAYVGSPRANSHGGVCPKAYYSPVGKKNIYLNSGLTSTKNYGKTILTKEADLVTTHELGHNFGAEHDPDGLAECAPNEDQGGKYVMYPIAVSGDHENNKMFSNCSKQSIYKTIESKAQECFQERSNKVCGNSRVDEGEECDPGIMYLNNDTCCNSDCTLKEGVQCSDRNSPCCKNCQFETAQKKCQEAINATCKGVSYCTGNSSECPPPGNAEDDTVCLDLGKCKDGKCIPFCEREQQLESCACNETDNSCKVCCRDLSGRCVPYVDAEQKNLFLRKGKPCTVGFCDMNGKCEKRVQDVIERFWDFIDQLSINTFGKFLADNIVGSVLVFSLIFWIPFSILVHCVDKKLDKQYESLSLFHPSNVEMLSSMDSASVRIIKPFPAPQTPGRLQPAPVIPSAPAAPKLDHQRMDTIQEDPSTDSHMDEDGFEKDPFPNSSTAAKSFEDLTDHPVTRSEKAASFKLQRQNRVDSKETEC
Sequence of Eukaryotic translation initiation factor 4E (P63073 whole entry): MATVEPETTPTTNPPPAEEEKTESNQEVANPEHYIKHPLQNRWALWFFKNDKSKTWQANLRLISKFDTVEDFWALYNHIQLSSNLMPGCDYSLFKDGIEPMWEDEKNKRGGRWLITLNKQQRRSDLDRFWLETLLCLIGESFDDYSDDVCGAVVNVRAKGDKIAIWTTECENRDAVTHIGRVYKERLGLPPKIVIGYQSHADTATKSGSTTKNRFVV
Sequence of Envelope glycoprotein gp160 (Q6QLK5 whole entry, the tested form may be a part): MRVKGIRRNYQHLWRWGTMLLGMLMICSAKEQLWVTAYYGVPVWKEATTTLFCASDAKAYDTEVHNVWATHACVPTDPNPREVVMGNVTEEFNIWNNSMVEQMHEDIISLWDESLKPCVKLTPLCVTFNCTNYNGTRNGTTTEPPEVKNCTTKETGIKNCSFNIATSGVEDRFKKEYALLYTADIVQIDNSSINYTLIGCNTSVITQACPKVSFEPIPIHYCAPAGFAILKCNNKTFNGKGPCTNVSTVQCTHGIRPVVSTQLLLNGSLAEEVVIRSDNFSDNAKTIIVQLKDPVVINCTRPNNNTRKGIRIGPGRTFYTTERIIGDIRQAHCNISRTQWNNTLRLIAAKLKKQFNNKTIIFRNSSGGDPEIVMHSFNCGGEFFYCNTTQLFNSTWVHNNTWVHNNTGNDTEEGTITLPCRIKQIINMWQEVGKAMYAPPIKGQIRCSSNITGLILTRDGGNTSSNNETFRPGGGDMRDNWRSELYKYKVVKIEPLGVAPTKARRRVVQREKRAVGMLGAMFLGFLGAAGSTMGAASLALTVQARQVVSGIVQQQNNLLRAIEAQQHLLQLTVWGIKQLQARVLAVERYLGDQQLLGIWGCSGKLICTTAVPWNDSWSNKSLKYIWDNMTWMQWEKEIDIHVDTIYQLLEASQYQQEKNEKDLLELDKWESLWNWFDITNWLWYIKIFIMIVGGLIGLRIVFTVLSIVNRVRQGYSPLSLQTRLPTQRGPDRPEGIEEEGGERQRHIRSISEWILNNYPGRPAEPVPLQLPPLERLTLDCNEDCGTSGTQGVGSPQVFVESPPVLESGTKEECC
Sequence of G-protein coupled receptor 55 (Q9Y2T6 whole entry): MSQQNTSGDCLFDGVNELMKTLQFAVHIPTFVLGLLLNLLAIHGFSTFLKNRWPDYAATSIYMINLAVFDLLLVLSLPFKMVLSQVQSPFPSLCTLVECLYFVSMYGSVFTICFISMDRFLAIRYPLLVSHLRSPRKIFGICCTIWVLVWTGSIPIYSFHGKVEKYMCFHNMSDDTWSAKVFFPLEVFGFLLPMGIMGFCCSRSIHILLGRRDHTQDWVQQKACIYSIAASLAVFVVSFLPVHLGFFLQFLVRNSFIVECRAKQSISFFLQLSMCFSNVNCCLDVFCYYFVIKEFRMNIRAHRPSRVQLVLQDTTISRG

With `O=C(O)C[C@@H]1C(=O)O[C@@H]2C(COC(=O)c3cc(O)c(O)c(O)c3)O[C@@H](OC(=O)c3cc(O)c(O)c(O)c3)[C@@H](OC(=O)c3cc(O)c(O)c4c3[C@H]1[C@H](O)C(=O)O4)[C@H]2OC(=O)c1cc(O)c(O)c(O)c1` (stereo not given in full) the CC50 [1] was > 40 µM (active), the IC50 [2] was 11.2 µM (active) and the IC50 [3] was 1.52 µM (active).

For `S=C(NCc1ccc(Cl)cc1)Nc1ccncc1`, the IC50 [4] was > 69.6 µM (inactive), the AC50 [5] was > 70 µM (inactive) and the AC50 [6] was 22.1 µM (active). The IC50 [7] was > 69.6 µM (inactive), the AC50 [8] was 1.5 µM (active) and the IC50 [9] was > 125 µM (active).

For `COc1ccc(-c2cc(C(F)(F)F)n3nc(C(=O)NCc4ccco4)cc3n2)cc1`, the EC50 [10] was > 32 µM (inactive).

With `Cc1ccc(C)c(N2CCN(C(=O)C(Cc3ccccc3)n3cccc3)CC2)c1` (stereo not given) the EC50 [11] was > 32 µM (inactive), the IC50 [12] was > 64 µM (inactive) and the EC50 [13] was 4.27 µM. The IC50 [14] was > 32 µM (inactive), the EC50 [15] was 10.5 µM and the EC50 [16] was > 32 µM (inactive).

In the case of `CCN(CCNC(=O)c1ccc(CNS(=O)(=O)c2ccccc2)cc1)Cc1ccccc1`, the IC50 [17] is reported as > 32 µM (inactive), the IC50 [18] is reported as 4.86 µM (active) and the IC50 [19] is reported as 2.03 µM (active). For the same compound, the IC50 [20] was 12.1 µM (inactive).
